We go through four molecules from ChEMBL document CHEMBL1201862, “PubChem BioAssay data set” (2004).

Some test systems named below: A498; A549; BT-549; LOX IMVI; CCRF-CEM; HCC 2998; IGROV-1; SNB-19; DU-145; MCF7; SN12C; RPMI-8226; K562; HCT-15; NCI-H226; HOP-62; HT-29; SW-620; PC-3.
What all share (test): inhibition of tumour cell growth, NCI panel, 48 h

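Assay format: 96-well plates, 48-hour exposure. GI50: concentration for 50% inhibition of growth.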 Activity calls are given as the source filed them. Cut-off read from the data, not from the text of the source: active = GI50 up to about 1.1 µM and inactive = higher. Bounds are passed on as bounds.

`COC(=O)[C@@H]1[C@H]2CC[C@]3(C)[C@@H](OC(C)=O)CC[C@H]3[C@@H]2CC[C@H]1C1(C)SCCS1`: the GI50 with A498 was 57.5 µM (inactive); in the test with A549 it was 25.1 µM (inactive); with BT-549, 18.4 µM (inactive); with LOX IMVI, 19.4 µM (inactive); in the test on CCRF-CEM, 36.9 µM (inactive); in the test with HCC 2998, 35.6 µM (inactive). For the same molecule, the GI50 with IGROV-1 is 49.2 µM (inactive); in the test with SNB-19, 50.5 µM (inactive); in the test with DU-145 it was 35.9 µM (inactive); in the test on MCF7 it was 27 µM (inactive); in the test on SN12C it was 18.5 µM (inactive); in the test with RPMI-8226, 19.3 µM (inactive). Further, the GI50 in the test with K562 is 36.1 µM (inactive); with HCT-15 it was 32 µM; with NCI-H226, 23.9 µM (inactive); with HOP-62 it was 23.1 µM (inactive); with HT-29, 15 µM (inactive); in the test on SW-620 it was 31.9 µM (inactive). Moreover, in the test with PC-3, the GI50 is 26.8 µM (inactive).

`Cc1ccc(S(=O)(=O)c2ccc([N+](=O)[O-])o2)cc1`: the GI50 in the test on A498 is 17 µM (inactive); with A549, 8.81 µM (inactive); with BT-549, 2.51 µM (inactive); in the test on LOX IMVI it was 1.14 µM (inactive); in the test with CCRF-CEM, 0.242 µM (active); in the test with HCC 2998, 4.83 µM (inactive). The GI50 in the test with IGROV-1 is 1.55 µM (inactive); with SNB-19, 20.1 µM (inactive); in the test on DU-145, 3.66 µM (inactive); with MCF7, 2.55 µM (inactive); in the test on SN12C, 7.73 µM (inactive); in the test with RPMI-8226 it was 1.65 µM (inactive). Also, the GI50 was 1.23 µM (inactive) in the test with K562; 1.17 µM with HCT-15; 10.8 µM (inactive) with NCI-H226; 17.7 µM (inactive) in the test with HOP-62; 1.7 µM (inactive) with HT-29; 0.468 µM (active) in the test with SW-620. In addition, in the test with PC-3, the GI50 was 1.6 µM (inactive).

Take `CN(C)N1C(=O)c2ccccc2NC1c1ccccc1` (stereo not given): the GI50 in the test on A498, in the test with A549, in the test with BT-549, in the test on LOX IMVI, in the test with CCRF-CEM and in the test with HCC 2998 was > 100 µM (inactive) each time. Besides, the GI50 in the test with IGROV-1, with SNB-19, with DU-145, in the test with MCF7, in the test with SN12C and in the test with RPMI-8226 was > 100 µM (inactive) throughout. The GI50 in the test with HCT-15 is more than 100 µM; with NCI-H226, > 100 µM (inactive); in the test with HOP-62 it was > 100 µM (inactive); with HT-29, > 100 µM (inactive); with SW-620, > 100 µM (inactive); with PC-3, > 100 µM (inactive).

Consider `O=c1[nH]c(=O)n([C@H]2C[C@H](O)[C@@H](CO)O2)cc1Br` [BROXURIDINE], for which the GI50 in the test on A498 is > 100 µM (inactive); in the test on A549, > 100 µM (inactive); in the test with BT-549 it was > 100 µM (inactive); with LOX IMVI it was > 97.1 µM (inactive); with CCRF-CEM, > 64.4 µM (inactive); with HCC 2998, > 60.3 µM (inactive). Besides, the GI50 with IGROV-1 is > 59.2 µM (inactive); in the test on SNB-19, > 100 µM (inactive); in the test on DU-145, > 100 µM (inactive); in the test with MCF7, 17.7 µM (inactive); in the test with SN12C, > 100 µM (inactive); in the test with RPMI-8226, 49.9 µM (inactive). The GI50 is > 72.4 µM (inactive) with K562; more than 63.5 µM in the test with HCT-15; > 100 µM (inactive) with NCI-H226; > 100 µM (inactive) in the test with HOP-62; > 100 µM (inactive) in the test on HT-29; > 100 µM (inactive) in the test with SW-620. For the same molecule, in the test on PC-3, the GI50 is > 100 µM (inactive).
